Measurements taken from paper PMC4349624, “In vitro synergistic effect of fluoroquinolone analogues in combination with artemisinin against Plasmodium falciparum; their antiplasmodial action in rodent malaria model” (Malaria Journal, 2015).

Tests used:
[1] = cited from earlier work
[2] = tested on: Plasmodium berghei ANKA; test: Peters' four-day suppressive test in BALB/c mice; type: in vivo; conditions: ip; for Mean ED50 ± SE: once daily days 0 to 3, BALB/c mice, n = 5
Description: Evaluation of the curative potential of the fluoroquinolone derivatives was done using the method described by Ryley and Peters, 1970 (rodent malaria four-day suppressive test; Peters’ four-day suppressive test). Rodent malaria parasite Plasmodium berghei ANKA was used.
[…] BALB/c inbred albino mice (25–30 g) of the male sex were obtained from the Animal Facility Centre of the Department of Zoology, University of Delhi. The animals were fed ad libitum with standard feed and had free access to water. They were maintained under standard conditions of humidity, temperature (25°C) and 12 hours light/darkness cycles. The animals were acclimatized for two weeks before the commencement of the study and were ensured to exclude all zoonotic agents.
Day 0: Heparinized blood was withdrawn from an infected donor mouse with approximately 25-30% parasitemia, and diluted in 1x PBS to 10^8 parasitized erythrocytes per mL. An aliquot of 0.2 mL (=2 × 10^7 parasitized erythrocytes) of this suspension was injected intraperitoneally (ip) into experimental groups of five mice each. One to three hours post-infection, the experimental groups were treated with varying doses of each of the test compounds (0.5, 1, 10, 25 mg/kg BW) by the ip route. Each compound was made to strength of 5 mg/ml stock solution in 10% DMSO and administered according to desired concentration and individual body weight. Artemisinin was given to the standard drug group and 0.2 mL of normal saline to the negative control group.
Day 1, 2 and 3: 24 hours, 48 hours and 72 hours post-infection, the experimental groups of mice were treated again with the same dose and by the same route as on day 0.
Day 4: 24 hours after the last treatment (i.e., 96 hours post-infection), blood was drawn from the tail region of mice and smears were prepared. […] Differences in parasitemia percentage between treated groups and untreated animals were analysed by a one-way ANOVA test using IBM SPSS Statistics 16.0 and differences considered significant if P < 0.05. […] Percentinhibitionactivity=100–Meanparasitemia/control×100
Untreated control mice typically died approximately one week after infection. […] The mean survival time was calculated in comparison to untreated (Normal saline) and standard drug (artemisinin) treated groups. Differences in survival time between treated groups and untreated animals were analysed by Log-rank (Mantel-Cox) test using GraphPad Prism 5 and differences considered significant if P <0.005. Observations concerning adverse effects due to the compounds were recorded.

[3] = tested on: Plasmodium falciparum 3D7 strain; test: antiplasmodial interaction assay, fixed-ratio combination isobologram method with artemisinin; type: cell-based; conditions: n = 3
Experimental: Stock culture of malaria parasite P. falciparum 3D7 strain (chloroquine sensitive) was continuously maintained in vitro using a CO2 incubator under low-oxygen concentration (3%) and high carbon dioxide atmosphere (4%) along with nitrogen (93%), incubated at a temperature of 37°C. The parasites were maintained on O^+ human red blood cells suspended in a complete culture medium. Each litre of RPMI-1640 aqueous culture medium was prepared with 10.4 g of powdered RPMI-1640 (with glutamine but without sodium bicarbonate), 5.94 g of HEPES buffer, 1 g of dextrose and 40 mg of gentamicin. Complete medium was constituted just before use by adding sterile 5% sodium bicarbonate at the rate of 4 ml per 96 ml, and supplemented with 10% (v/v) pooled O^+ human serum. Infected erythrocytes were suspended in this culture media initiated at a haematocrit value of 5% and parasitemia was kept between 2 and 4% with sub-culturing done beyond 5%. Medium was changed once a day and percentage parasitemia was monitored using Giemsa stained slides.
Artemisinin (Sigma Aldrich, USA) was prepared in DMSO to get the stock solution of 1 mg/ml strength. Compounds 10, 12 and 18 were synthesized according to the procedure described by Dixit et al. and each compound was made to strength of 1 mg/ml stock solution in DMSO. The stock solutions were diluted on the day of experiment to get the desired concentrations for each compound. The highest amount of DMSO in diluted concentrations was 0.125%, and had no effect on parasite growth.
In each combination assay, two compounds (Compound A, artemisinin and Compound B, a fluoroquinolone derivative or norfloxacin) were combined in four fixed ratios (4:1, 3:2, 2:3, and 1:4).
Compound dilutions of each combination solution were made in sterile, flat-bottomed, 96-well tissue culture plates as described by Fivelman et al.. Six times two-fold serial dilution was done for each combination in triplicate. Each well contained a total volume of 200 μl of complete culture medium with or without compound and pre-synchronized infected red blood cells (1% parasitemia at 2.5% haematocrit). Control cultures (without compound) were maintained on the same plate in triplicate. Two 96-well plates (for six combinations) were used for each combination experiment. The plates were stacked in a CO2 incubator and incubated at 37°C for 48 hours.
After 48-hour incubation, thin blood smear slides were prepared, air dried, methanol fixed, and stained in Giemsa solution for 40 min. After staining, slides were removed from coupling jar, washed in running tap water and air dried. The Giemsa-stained slides were examined for counting the number of parasites in random adjacent microscopic fields, equivalent to about 4,000 erythrocytes at 1,000 × magnification. Per cent parasitemia was calculated. Reproducibility of counts was checked by two other readers to maintain the quality control.
For each combination assay, IC50 was calculated from two sets of concentration response graphs, each containing compound alone curve and four combination curves.
ƩFIC <1 represents synergism, ƩFIC > = 1 and <2 represents additive interaction, ƩFIC > = 2 and <4 represents slight antagonism while ƩFIC > = 4 represents marked antagonism.

For `C[C@@H]1CC[C@H]2[C@@H](C)C(=O)O[C@@H]3O[C@@]4(C)CC[C@@H]1[C@]32OO4` [Artemisinin], the half life [1] is listed as “< one”, the “Mean ED50 ± SE” value [2] is listed as 1.72 ± 0.15 mg/kg BW and the “Mean ED50 ± SE” value ([2]; listed as artemisinin) is listed as 1.72 mg/kg BW. For the same molecule, the “survival of treated mice” value ([2]; varying doses 0.5-25 mg/kg BW, observed 30 days) was “survived beyond two weeks”, the “Drug A (Artemisinin) Mean FIC50 ± SE” value ([3]; ratio A:B 1:4, combined with compound 10) was 0.17 ± 0.03 and the “Drug A (Artemisinin) Mean FIC50 ± SE” value ([3]; ratio A:B 1:4, combined with compound 12) was 0.25 ± 0.004. The “Drug A (Artemisinin) Mean FIC50 ± SE” value ([3]; ratio A:B 1:4, combined with compound 18) was 0.22 ± 0.01, the “Drug A (Artemisinin) Mean FIC50 ± SE” value ([3]; ratio A:B 1:4, combined with norfloxacin) was 0.14 ± 0.01 and the “Drug A (Artemisinin) Mean FIC50 ± SE” value ([3]; ratio A:B 2:3, combined with compound 10) was 0.48 ± 0.02. The “Drug A (Artemisinin) Mean FIC50 ± SE” value ([3]; ratio A:B 2:3, combined with compound 12) was 0.50 ± 0.02, the “Drug A (Artemisinin) Mean FIC50 ± SE” value ([3]; ratio A:B 2:3, combined with compound 18) was 0.49 ± 0.04 and the “Drug A (Artemisinin) Mean FIC50 ± SE” value ([3]; ratio A:B 2:3, combined with norfloxacin) was 0.66 ± 0.02. For the same molecule, the “Drug A (Artemisinin) Mean FIC50 ± SE” value ([3]; ratio A:B 3:2, combined with compound 10) was 0.58 ± 0.03, the “Drug A (Artemisinin) Mean FIC50 ± SE” value ([3]; ratio A:B 3:2, combined with compound 12) was 0.60 ± 0.03 and the “Drug A (Artemisinin) Mean FIC50 ± SE” value ([3]; ratio A:B 3:2, combined with compound 18) was 0.55 ± 0.03. The “Drug A (Artemisinin) Mean FIC50 ± SE” value ([3]; ratio A:B 3:2, combined with norfloxacin) was 0.29 ± 0.02, the “Drug A (Artemisinin) Mean FIC50 ± SE” value ([3]; ratio A:B 4:1, combined with compound 10) was 0.61 ± 0.01 and the “Drug A (Artemisinin) Mean FIC50 ± SE” value ([3]; ratio A:B 4:1, combined with compound 12) was 0.63 ± 0.03. The “Drug A (Artemisinin) Mean FIC50 ± SE” value ([3]; ratio A:B 4:1, combined with compound 18) was 0.58 ± 0.02, the “Drug A (Artemisinin) Mean FIC50 ± SE” value ([3]; ratio A:B 4:1, combined with norfloxacin) was 0.91 ± 0.03 and the “Drug A (Artemisinin) Mean FIC50 ± SE” value ([3]; ratio A:B 5:0, assay with compound 10) was 1.02 ± 0.04. For the same molecule, the “Drug A (Artemisinin) Mean FIC50 ± SE” value ([3]; ratio A:B 5:0, assay with compound 12) was 1.0 ± 0.02, the “Drug A (Artemisinin) Mean FIC50 ± SE” value ([3]; ratio A:B 5:0, assay with compound 18) was 0.97 ± 0.07 and the “Drug A (Artemisinin) Mean FIC50 ± SE” value ([3]; ratio A:B 5:0, assay with norfloxacin) was 1.13 ± 0.06.
